According to ChEMBL document CHEMBL3217526, “Bioguided discovery and pharmacophore modeling of the mycotoxic indole diterpene alkaloids penitrems as breast cancer proliferation, migration, and invasion inhibitors” (Medchemcomm, 2013):

Legend:
Caenorhabditis elegans [1] = experiment: Toxicity in L1 stage Caenorhabditis elegans N2 assessed as viability and reproduction at 50 uM; format: organism-based; settings: in vivo
Caenorhabditis elegans [2] = experiment: Toxicity in L1 stage Caenorhabditis elegans N2 assessed as viability and reproduction at 10 uM; format: organism-based; settings: in vivo
Caenorhabditis elegans [3] = experiment: In vivo inhibition of BK channel in L1 stage Caenorhabditis elegans N2 assessed as increase in reversals at 1 uM; format: organism-based
MDA-MB-231 [4] = experiment: Antimigratory activity in human MDA-MB-231 cells after 24 hrs by wound healing assay; format: functional, cell-based; settings: MDA-MB-231, 24 h
MDA-MB-231 [5] = experiment: Antiproliferative activity against human MDA-MB-231 cells after 72 hrs by MTT assay; format: functional, cell-based; settings: MDA-MB-231, 72 h
MCF7 = experiment: Antiproliferative activity against human MCF7 cells after 72 hrs by MTT assay; format: functional, cell-based; settings: MCF7, 72 h
MDA-MB-231 [6] = experiment: Antiinvasive activity against human MDA-MB-231 cells assessed as inhibition of cell invasion at 15 uM after 24 hrs by BME Cell invasion assay kit; format: functional; settings: MDA-MB-231, 24 h

Compound	Activity (Caenorhabditis elegans [1])	Activity (Caenorhabditis elegans [2])	Activity (Caenorhabditis elegans [3])	IC50 (MDA-MB-231 [4])	IC50 (MDA-MB-231 [5])	IC50 (MCF7)	inhibition at 15 µM (MDA-MB-231 [6])
CC(C)=CCC[C@]1(C)[C@@H](O)CC[C@@]2(C)[C@H]1CC[C@H]1Cc3c([nH]c4ccccc34)[C@@]12C [EMINDOLE SB]	Non-toxic	Non-toxic	Non-toxic	19 µM	21.3 µM	10.1 µM	
C=C1Cc2ccc3[nH]c4c5c3c2[C@H]2[C@@H]1C[C@H]2C(C)(C)O[C@H]5[C@@H]1CC[C@@]2(O)C3=C[C@@H](O)[C@@H](C(=C)C)O[C@H]3CC[C@]2(C)[C@@]41C [PENITREM D]	Non-toxic	Non-toxic		9.2 µM	29.7 µM	8.3 µM	50%
C=C1Cc2c(Br)cc3[nH]c4c5c3c2[C@H]2[C@@H]1C[C@@H]2C(C)(C)O[C@H]5[C@@H]1CC[C@@]2(O)[C@@]35O[C@@H]3[C@@H](O)[C@@H](C(=C)C)O[C@H]5CC[C@]2(C)[C@]41C	Non-toxic	Non-toxic		30.3 µM	18.8 µM	19.3 µM	
C=C(C)[C@H]1O[C@H]2CC[C@@]3(C)[C@@](O)(CC[C@H]4[C@@H]5OC(C)(C)[C@H]6C[C@@H]7C(=C)Cc8c(Br)cc9[nH]c(c5c9c8[C@@]76O)[C@@]43C)[C@]23O[C@@H]3[C@H]1O	Non-toxic	Non-toxic	Toxic	9.6 µM	8.5 µM	16.7 µM	
